Read-outs that look alike come from different tables or passages of the source. Where a SMILES comes first, the peptide text is derived from it. [ ]: non-standard residue; d: D form. βAla = NCCC(=O)O
Assays:
Type in all cases: in vitro ADME, human
[1] = system: MMP-14; assay: Soluble peptide degradation, Cells condition (LC-MS); conditions: human
Outline: (§1)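 Pooled synthetic TAILS-derived peptides added to hUVEC or hMSC cultures (Cells) or cell-free conditioned media (Media); MMP-14 inhibitor NSC 405 020 at 10 µM final. Samples taken at 0 and 24 h, acidified, analysed by LC-MS; peak areas normalised to 50 µM βFβA6 internal standard, 24 h/0 h gives fraction remaining.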

[2] = as above; conditions: human; for remaining at 24 h, 50 µM: Figure 3C, individually synthesized soluble peptide, N = 6
Outline: as §1

[3] = system: hMSCs; assay: as above; conditions: for peptide remaining after 24 h, Cells condition, hMSCs: 50 µM soluble peptide; for Fraction of peptide remaining after 24 hours: hMSC Cells: individually synthesized soluble peptide, media on hMSCs, ratio to βFβA6
Outline: as §1

[4] = with NSC 405 020 (MMP-14 inhibitor), Figure 3C, 50 µM peptide, media on hMSCs with MMP-14 inhibitor NSC 405 020 10 µM, 24 h, LC-MS, N = 6, read-out: Fraction of peptide remaining after 24 hours: hMSC +Inhibitor
[5] = with NSC 405 020 (MMP-14 inhibitor), Figure 3C, 50 µM peptide, media on hUVECs with MMP-14 inhibitor NSC 405 020 10 µM, 24 h, LC-MS, N = 6, read-out: Fraction of peptide remaining after 24 hours: hUVEC +Inhibitor
[6] = hMSCs in culture with fresh media (Cells condition), Figure 2B heatmap, pooled TAILS-derived soluble peptides (Ac-βAla N-terminus, βAla-amide C-terminus) in media on hMSCs (36000 per well, 48 well plate, 500 µL), 24 h, LC-MS, ratio to βFβA6 internal standard, 24 h / 0 h, N = 5, read-out: Fraction of peptide remaining at 24 hours: hMSC Cells
[7] = hUVECs in culture with fresh media (Cells condition), Figure 2B heatmap, pooled TAILS-derived soluble peptides in media on hUVECs (75000 per well, 48 well plate, 500 µL), 24 h, LC-MS, ratio to βFβA6 internal standard, 24 h / 0 h, N = 5, read-out: Fraction of peptide remaining at 24 hours: hUVEC Cells
[8] = hUVECs in culture with fresh media (Cells condition), media on hUVECs, 24 h, LC-MS, ratio to βFβA6, read-out: Fraction of peptide remaining after 24 hours: hUVEC Cells
[9] = Figure 3C, 50 µM, 24 h, LC-MS, N = 6

| SMILES | remaining at 24 h, 50 µM ([1]; cells or culture medium) | remaining at 24 h, 50 µM ([1]; cells or culture medium, Fraction of peptide remaining after 24 hours: hMSC +Inhibitor) | remaining at 24 h ([2]; cells or culture medium) | remaining at 24 h ([2]; cells or culture medium, Fraction of peptide remaining after 24 hours: hMSC Cells) | remaining at 24 h, 50 µM [1, 4] | remaining at 24 h, 50 µM [1, 5] | remaining at 24 h [2, 6] | remaining at 24 h, 50 µM ([2]; hMSCs in culture with fresh media (Cells condition), media on hMSCs, 24 h, LC-MS, ratio to βFβA6, read-out: Fraction of peptide remaining after 24 hours: hMSC Cells) | remaining at 24 h [2, 7] | remaining at 24 h, 50 µM [2, 8] | remaining after 24 h in the Cells condition for hMSCs ([3]; Figure 2B screen, 24 h, LC-MS) | peptide remaining after 24 h, Cells condition, hMSCs ([3]; Figure 3C, LC-MS, N = 6) | remaining at 24 h ([2]; hMSCs in culture with fresh media (Cells condition), Figure 3B heatmap, split-and-pool libraries KLVADX1X2ASAE (19 or 38 peptides per library) in media on hMSCs, 24 h, LC-MS, ratio to βFβA6, N = 2, read-out: Fraction of peptide remaining after 24 hours: hMSC Cells) | remaining at 24 h ([2]; hUVECs in culture with fresh media (Cells condition), Figure 3B heatmap, split-and-pool libraries KLVADX1X2ASAE in media on hUVECs, 24 h, LC-MS, ratio to βFβA6, N = 2, read-out: Fraction of peptide remaining after 24 hours: hUVEC Cells) | Fraction of peptide remaining after 24 hours: hMSC Cells [3, 9] | metabolised at 24 h ([2]; hMSCs in culture with fresh media (Cells condition), Figure 2B screen, hMSCs, 24 h, LC-MS, read-out: amount of degradation in the Cells condition) | peptide remaining, Cells + MMP-14 inhibitor, hMSCs ([3]; 24 h, 50 µM) | Fraction of peptide remaining after 24 hours: hMSC +Inhibitor ([3]; Figure 3C, 50 µM peptide, media on hMSCs with MMP-14 inhibitor NSC 405 020 10 µM, 24 h, LC-MS, N = 6) |
| --- | --- | --- | --- | --- | --- | --- | --- | --- | --- | --- | --- | --- | --- | --- | --- | --- | --- | --- |
| CSCC[C@H](NC(=O)[C@H](CC(C)C)NC(=O)[C@H](CC(=O)O)NC(=O)[C@H](C)NC(=O)[C@@H](NC(=O)[C@H](CC(C)C)NC(=O)[C@H](CCCCN)NC(=O)CCNC(C)=O)C(C)C)C(=O)N[C@@H](C)C(=O)N[C@@H](CO)C(=O)N[C@@H](C)C(=O)N[C@@H](CCC(=O)O)C(=O)NCCC(N)=O [KLVAD-LM] (Ac-[βAla]KLVADLMASAE[βAla]-NH2) | 100% | 82% | 87% | 39% | – | – | – | – | – | – | – | – | – | – | – | – | – | – |
| CC(=O)NCCC(=O)N[C@@H](CCCCN)C(=O)N[C@@H](CC(C)C)C(=O)N[C@H](C(=O)N[C@@H](C)C(=O)N[C@@H](CC(=O)O)C(=O)N[C@@H](CC(N)=O)C(=O)N[C@@H](Cc1ccc(O)cc1)C(=O)N[C@@H](C)C(=O)N[C@@H](CO)C(=O)N[C@@H](C)C(=O)N[C@@H](CCC(=O)O)C(=O)NCCC(N)=O)C(C)C [KLVAD-NY] (Ac-[βAla]KLVADNYASAE[βAla]-NH2) | – | – | – | – | 87% | 98% | 70% | 78% | 92% | 96% | 70% | 78% | – | – | – | – | – | – |
| CC(=O)NCCC(=O)N[C@@H](CCCCN)C(=O)N[C@@H](CC(C)C)C(=O)N[C@H](C(=O)N[C@@H](C)C(=O)N[C@@H](CC(=O)O)C(=O)N1CCC[C@H]1C(=O)N[C@@H](Cc1ccc(O)cc1)C(=O)N[C@@H](C)C(=O)N[C@@H](CO)C(=O)N[C@@H](C)C(=O)N[C@@H](CCC(=O)O)C(=O)NCCC(N)=O)C(C)C [KLVAD-PY] (Ac-[βAla]KLVADPYASAE[βAla]-NH2) | – | – | – | – | 89% | 100% | – | – | – | 88% | – | – | 56% | 94% | 0.52 | – | – | – |
| CC[C@H](C)[C@H](NC(=O)CNC(=O)[C@H](CCC(N)=O)NC(=O)[C@@H]1CCCN1C(=O)CNC(=O)CCNC(C)=O)C(=O)N[C@@H](Cc1c[nH]c2ccccc12)C(=O)NCC(=O)N[C@@H](CCC(N)=O)C(=O)NCCC(N)=O [PanMMP, reference compound] (Ac-[βAla]GPQGIWGQ[βAla]-NH2) | – | – | – | – | – | 95% | 39% | – | 69% | – | – | 35% | – | – | 0.35 | 61% | 78% | 0.78 |

From paper PMC12683216, “Using High‐Throughput Screening to Identify Crosslinking Peptides That Control Cell‐Mediated Matrix Degradation” (Advanced Healthcare Materials, 2025)
